The source of these data is BindingDB's records for doi:10.1021/jm701049p (Seoul National University, 2008).

Chain of Transient receptor potential cation channel subfamily V member 1 (O35433 whole entry): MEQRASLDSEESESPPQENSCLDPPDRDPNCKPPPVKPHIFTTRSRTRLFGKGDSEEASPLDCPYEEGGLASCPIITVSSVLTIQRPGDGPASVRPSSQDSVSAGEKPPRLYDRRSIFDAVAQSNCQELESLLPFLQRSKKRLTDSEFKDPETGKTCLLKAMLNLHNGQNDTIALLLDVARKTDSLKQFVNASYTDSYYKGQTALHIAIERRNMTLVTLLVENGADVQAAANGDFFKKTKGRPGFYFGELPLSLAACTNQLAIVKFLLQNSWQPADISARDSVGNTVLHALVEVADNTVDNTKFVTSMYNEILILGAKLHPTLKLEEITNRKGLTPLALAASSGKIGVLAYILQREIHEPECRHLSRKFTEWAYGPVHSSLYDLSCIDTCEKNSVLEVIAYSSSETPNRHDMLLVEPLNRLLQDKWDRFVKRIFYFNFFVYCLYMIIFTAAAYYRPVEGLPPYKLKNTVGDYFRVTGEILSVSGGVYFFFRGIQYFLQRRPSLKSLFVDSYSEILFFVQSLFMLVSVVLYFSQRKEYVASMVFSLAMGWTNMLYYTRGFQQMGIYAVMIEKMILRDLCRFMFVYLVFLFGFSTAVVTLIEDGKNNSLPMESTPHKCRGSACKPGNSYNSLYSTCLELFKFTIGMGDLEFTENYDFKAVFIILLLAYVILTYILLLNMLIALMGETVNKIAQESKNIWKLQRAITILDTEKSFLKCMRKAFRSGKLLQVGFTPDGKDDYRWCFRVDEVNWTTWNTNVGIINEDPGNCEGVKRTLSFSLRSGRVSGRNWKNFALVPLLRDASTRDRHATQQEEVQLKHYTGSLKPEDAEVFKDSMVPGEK

One test deals with Transient receptor potential cation channel subfamily V member 1 (Rattus norvegicus, UniProt O35433). Kind of test: Competition Binding Assay and Inhibition of Ca2+ Uptake Assay. Particulars: pH 7.4; 37 °C. The protocol:
Binding assay mixtures were set up and contained [3H] RTX, various concentrations of competing ligands, and rVR1-transfected CHO cells. Nonspecific binding was determined in the presence of 100 nM nonradioactive RTX. After the binding reaction, membrane-bound RTX was separated from the free by centrifugation, and the radioactivity was determined by scintillation counting. Equilibrium binding parameters (Ki, Bmax, and cooperativity) were determined by fitting the Hill equation to the measured values with the aid of the program Origin 6.0.
`CC(C)(C)C(=O)OCC(CNC(=S)NCc1ccc(NS(C)(=O)=O)c(F)c1)Cc1ccc(C(C)(C)C)cc1` (stereo not drawn) came in with a Ki of 52 nM.

In the case of `CC(C)(C)C(=O)OCC(CNC(=O)Cc1ccc(NS(C)(=O)=O)c(F)c1)Cc1ccc(C(C)(C)C)cc1` (stereo not drawn), affinity was put at a Ki of 440 nM. Same read-out and setting: under `Cc1ccc(CC(CNC(=S)NCc2ccc(NS(C)(=O)=O)c(F)c2)COC(=O)C(C)(C)C)cc1C` (stereo not drawn) stands 7.8 nM; under `Cc1ccc(CC(CNC(=O)C(C)(C)c2ccc(NS(C)(=O)=O)c(F)c2)COC(=O)C(C)(C)C)cc1C` (stereo not drawn) [2-[(3,4-dimethylphenyl)methyl]-3-[2-(3-fluoro-4-methanesulfonamidophenyl)-2-methylpropanamido]propyl 2,2-dimethylpropanoate], 65 nM; under `Cc1ccc(CC(CNC(=O)C(C)c2ccc(NS(C)(=O)=O)c(F)c2)COC(=O)C(C)(C)C)cc1C` (stereo not drawn) [2-[(3,4-dimethylphenyl)methyl]-3-[2-(3-fluoro-4-methanesulfonamidophenyl)propanamido]propyl 2,2-dimethylpropanoate], 10.8 nM.

In turn, `COc1cc(C(C)(C)C(=O)NCC(COC(=O)C(C)(C)C)Cc2ccc(C)c(C)c2)ccc1NS(C)(=O)=O` (stereo not drawn) [2-[(3,4-dimethylphenyl)methyl]-3-[2-(4-methanesulfonamido-3-methoxyphenyl)-2-methylpropanamido]propyl 2,2-dimethylpropanoate] showed a Ki of 133 nM. Same read-out and setting: under `COc1cc(C(C)C(=O)NCC(COC(=O)C(C)(C)C)Cc2ccc(C)c(C)c2)ccc1NS(C)(=O)=O` (stereo not drawn) [2-[(3,4-dimethylphenyl)methyl]-3-[2-(4-methanesulfonamido-3-methoxyphenyl)propanamido]propyl 2,2-dimethylpropanoate] stands 13.6 nM; under `Cc1ccc(CC(CNC(=O)C(C)(C)c2ccc(NS(C)(=O)=O)cc2)COC(=O)C(C)(C)C)cc1C` (stereo not drawn) [2-[(3,4-dimethylphenyl)methyl]-3-[2-(4-methanesulfonamidophenyl)-2-methylpropanamido]propyl 2,2-dimethylpropanoate], 104 nM. For `Cc1ccc(CC(CNC(=O)C(C)c2ccc(NS(C)(=O)=O)cc2)COC(=O)C(C)(C)C)cc1C` (stereo not drawn) [2-[(3,4-dimethylphenyl)methyl]-3-[2-(4-methanesulfonamidophenyl)propanamido]propyl 2,2-dimethylpropanoate], the Ki was found to be 38 nM. In the case of `Cc1ccc(CC(CNC(=O)C2(c3ccc(NS(C)(=O)=O)c(F)c3)CC2)COC(=O)C(C)(C)C)cc1C` (stereo not drawn) [2-[(3,4-dimethylphenyl)methyl]-3-{[1-(3-fluoro-4-methanesulfonamidophenyl)cyclopropyl]formamido}propyl 2,2-dimethylpropanoate], the Ki stood at 567 nM. Still for that read-out and setting: the result for `COc1cc(C2(C(=O)NCC(COC(=O)C(C)(C)C)Cc3ccc(C)c(C)c3)CC2)ccc1NS(C)(=O)=O` (stereo not drawn) [2-[(3,4-dimethylphenyl)methyl]-3-{[1-(4-methanesulfonamido-3-methoxyphenyl)cyclopropyl]formamido}propyl 2,2-dimethylpropanoate] reads 118 nM; that for `Cc1ccc(CC(CNC(=O)C2(c3ccc(NS(C)(=O)=O)cc3)CC2)COC(=O)C(C)(C)C)cc1C` (stereo not drawn) [2-[(3,4-dimethylphenyl)methyl]-3-{[1-(4-methanesulfonamidophenyl)cyclopropyl]formamido}propyl 2,2-dimethylpropanoate], 197 nM; that for `CC(C(=O)NCC(COC(=O)C(C)(C)C)Cc1ccc(C(C)(C)C)cc1)c1ccc(NS(C)(=O)=O)c(Cl)c1` (stereo not drawn) [2-[(4-tert-butylphenyl)methyl]-3-[2-(3-chloro-4-methanesulfonamidophenyl)propanamido]propyl 2,2-dimethylpropanoate], 12.3 nM. Turning to `CC(C(=O)NCC(COC(=O)C(C)(C)C)Cc1ccc(C(C)(C)C)cc1)c1ccc(NS(C)(=O)=O)cc1` (stereo not drawn) [2-[(4-tert-butylphenyl)methyl]-3-[2-(4-methanesulfonamidophenyl)propanamido]propyl 2,2-dimethylpropanoate], the Ki was 52 nM. With `Cc1ccc(CC(CNC(=O)C(C)c2ccc(NS(C)(=O)=O)c(Cl)c2)COC(=O)C(C)(C)C)cc1C` (stereo not drawn) [3-[2-(3-chloro-4-methanesulfonamidophenyl)propanamido]-2-[(3,4-dimethylphenyl)methyl]propyl 2,2-dimethylpropanoate], affinity was put at a Ki of 36 nM.

`C[C@@H](C(=O)NC[C@H](COC(=O)C(C)(C)C)Cc1ccc(C(C)(C)C)cc1)c1ccc(NS(C)(=O)=O)c(F)c1` [(2R)-2-[(4-tert-butylphenyl)methyl]-3-[(2R)-2-(3-fluoro-4-methanesulfonamidophenyl)propanamido]propyl 2,2-dimethylpropanoate] registered a Ki of 30.3 nM.

For `C[C@H](C(=O)NC[C@H](COC(=O)C(C)(C)C)Cc1ccc(C(C)(C)C)cc1)c1ccc(NS(C)(=O)=O)c(Cl)c1` [(2R)-2-[(4-tert-butylphenyl)methyl]-3-[(2S)-2-(3-chloro-4-methanesulfonamidophenyl)propanamido]propyl 2,2-dimethylpropanoate], the affinity corresponds to a Ki of 5.2 nM. Same read-out and setting: the result for `C[C@H](C(=O)NC[C@H](COC(=O)C(C)(C)C)Cc1ccc(C(C)(C)C)cc1)c1ccc(NS(C)(=O)=O)c(F)c1` [(2R)-2-[(4-tert-butylphenyl)methyl]-3-[(2S)-2-(3-fluoro-4-methanesulfonamidophenyl)propanamido]propyl 2,2-dimethylpropanoate] reads 0.58 nM; that for `C[C@@H](C(=O)NC[C@H](COC(=O)C(C)(C)C)Cc1ccccc1)c1ccc(NS(C)(=O)=O)c(F)c1` [(2R)-2-benzyl-3-[(2R)-2-(3-fluoro-4-methanesulfonamidophenyl)propanamido]propyl 2,2-dimethylpropanoate], 98 nM; that for `C[C@H](C(=O)NC[C@H](COC(=O)C(C)(C)C)Cc1ccccc1)c1ccc(NS(C)(=O)=O)c(F)c1` [(2R)-2-benzyl-3-[(2S)-2-(3-fluoro-4-methanesulfonamidophenyl)propanamido]propyl 2,2-dimethylpropanoate], 8.56 nM. As for `C[C@@H](C(=O)NC[C@@H](COC(=O)C(C)(C)C)Cc1ccc(C(C)(C)C)cc1)c1ccc(NS(C)(=O)=O)c(F)c1` [(2S)-2-[(4-tert-butylphenyl)methyl]-3-[(2R)-2-(3-fluoro-4-methanesulfonamidophenyl)propanamido]propyl 2,2-dimethylpropanoate], the inhibition constant (Ki) was 142 nM. `C[C@H](C(=O)NC[C@@H](COC(=O)C(C)(C)C)Cc1ccc(C(C)(C)C)cc1)c1ccc(NS(C)(=O)=O)c(Cl)c1` [(2S)-2-[(4-tert-butylphenyl)methyl]-3-[(2S)-2-(3-chloro-4-methanesulfonamidophenyl)propanamido]propyl 2,2-dimethylpropanoate] registered a Ki of 12.1 nM.

`C[C@H](C(=O)NC[C@@H](COC(=O)C(C)(C)C)Cc1ccc(C(C)(C)C)cc1)c1ccc(NS(C)(=O)=O)c(F)c1` [(2S)-2-[(4-tert-butylphenyl)methyl]-3-[(2S)-2-(3-fluoro-4-methanesulfonamidophenyl)propanamido]propyl 2,2-dimethylpropanoate] displayed a Ki of 10.9 nM.

As to `C[C@@H](C(=O)NC[C@@H](COC(=O)C(C)(C)C)Cc1ccccc1)c1ccc(NS(C)(=O)=O)c(F)c1` [(2S)-2-benzyl-3-[(2R)-2-(3-fluoro-4-methanesulfonamidophenyl)propanamido]propyl 2,2-dimethylpropanoate], the inhibition constant (Ki) came to 205 nM. Compound `C[C@H](C(=O)NC[C@@H](COC(=O)C(C)(C)C)Cc1ccccc1)c1ccc(NS(C)(=O)=O)c(F)c1` [(2S)-2-benzyl-3-[(2S)-2-(3-fluoro-4-methanesulfonamidophenyl)propanamido]propyl 2,2-dimethylpropanoate] came in with a Ki of 10 nM. For the compound `C=C(C)[C@]12C[C@@H](C)[C@@]34OC(Cc5ccccc5)(O[C@@H]1[C@@H]3C=C(COC(=O)Cc1cc(I)c(O)c(OC)c1)C[C@]1(O)C(=O)C(C)=C[C@@H]41)O2` [[(1R,2R,6R,10S,11R,15R,17R)-13-benzyl-6-hydroxy-4,17-dimethyl-5-oxo-15-(prop-1-en-2-yl)-12,14,18-trioxapentacyclo[11.4.1.0^{1,10}.0^{2,6}.0^{11,15}]octadeca-3,8-dien-8-yl]methyl 2-(4-hydroxy-3-iodo-5-methoxyphenyl)acetate], affinity was put at a Ki of 12.2 nM.

The compound `CC(C(=O)NCC(COC(=O)C(C)(C)C)Cc1ccc(C(C)(C)C)cc1)c1ccc(NS(C)(=O)=O)c(F)c1` (stereo not drawn) [diastereomeric mixture] registered a Ki of 3.24 nM.

Staying with this test, now noted: pH 7.4; 37 °C; read-out: Ki.
As to `C=C(C)[C@]12C[C@@H](C)[C@@]34OC(Cc5ccccc5)(O[C@@H]1[C@@H]3C=C(COC(=O)Cc1cc(I)c(O)c(OC)c1)C[C@]1(O)C(=O)C(C)=C[C@@H]41)O2` [[(1R,2R,6R,10S,11R,15R,17R)-13-benzyl-6-hydroxy-4,17-dimethyl-5-oxo-15-(prop-1-en-2-yl)-12,14,18-trioxapentacyclo[11.4.1.0^{1,10}.0^{2,6}.0^{11,15}]octadeca-3,8-dien-8-yl]methyl 2-(4-hydroxy-3-iodo-5-methoxyphenyl)acetate], the Ki is 0.61 nM.

For orientation: Ki means the dissociation constant of the complex between target and ligand, obtained from inhibition or displacement.
